Laboratory results: patent US20240365781A1, “SYNERGISTICALLY EFFECTIVE HERBICIDE COMPOSITION COMPRISING PELARGONIC ACID AND FLAZASULFURON” (Belchim Crop Protection NV, priority 2017, published 2024)

Legend:
Format in all cases: in vivo
Lolium multiflorum = experiment: post-emergence field trial under rows of apple trees, 150-200 L water/ha (Examples 10-12); conditions: Lolium multiflorum/88 d
Method: (§1) Herbicidal activity was determined by performing a post-emergence test. […] The corresponding mixture was in the form of a spray solution. Besides, spray solutions of individual compositions comprising pelargonic acid or flazasulfuron were used.
(§2) The spray solution was applied on plants of unwanted vegetation present on fields where perennial crops were grown.
(§3) After 5 to 88 days after application of the spray solution, the degree of damage to the unwanted vegetation is rated in % of plants of unwanted vegetation that were killed. Tests were performed on test fields (field trials).

Sonchus oleracea [1] = experiment: as above
Method: as §1, §2, §3

Poa annua = experiment: as above
Method: as §1, §2, §3

Erigeron sumatrensis = experiment: post-emergence field trial under rows of vines, 150-200 L water/ha (Examples 6-9); conditions: flazasulfuron 40 g/ha
Convolvulus arvensis = experiment: as above; conditions: flazasulfuron 40 g/ha
Sonchus oleracea [2] = experiment: as above; conditions: flazasulfuron 40 g/ha
Oxalis latifolia = experiment: as above; conditions: flazasulfuron 40 g/ha
[3] = 14 d, pelargonic acid 5440 g/ha
[4] = 14 d, pelargonic acid 6800 g/ha
[5] = 14 d, pelargonic acid 8160 g/ha
[6] = 14 d, pelargonic acid 10880 g/ha
[7] = 28 d, pelargonic acid 6800 g/ha

CCCCCCCCC(=O)O [Pelargonic acid, nonanoic acid]
herbicidal effect (%) (Lolium multiflorum; 5440 g of active compound/ha): 0%
herbicidal effect (%) (Lolium multiflorum; 8160 g of active compound/ha): 0%
herbicidal effect (%) (Lolium multiflorum; 10880 g of active compound/ha): 0%
herbicidal effect (%) (Sonchus oleracea [1]; Sonchus oleracea/6 d, 5440 g of active compound/ha): 25%
herbicidal effect (%) (Sonchus oleracea [1]; Sonchus oleracea/6 d, 8160 g of active compound/ha): 50%
herbicidal effect (%) (Sonchus oleracea [1]; Sonchus oleracea/6 d, 10880 g of active compound/ha): 55%
herbicidal effect (%) (Sonchus oleracea [1]; Sonchus oleracea/16 d, 5440 g of active compound/ha): 48%
herbicidal effect (%) (Sonchus oleracea [1]; Sonchus oleracea/16 d, 8160 g of active compound/ha): 43%
herbicidal effect (%) (Sonchus oleracea [1]; Sonchus oleracea/16 d, 10880 g of active compound/ha): 45%
herbicidal effect (%) (Sonchus oleracea [1]; Sonchus oleracea/30 d, 5440 g of active compound/ha): 40%
herbicidal effect (%) (Sonchus oleracea [1]; Sonchus oleracea/30 d, 8160 g of active compound/ha): 48%
herbicidal effect (%) (Sonchus oleracea [1]; Sonchus oleracea/30 d, 10880 g of active compound/ha): 53%
herbicidal effect (%) (Sonchus oleracea [1]; Sonchus oleracea/57 d, 5440 g of active compound/ha): 0%
herbicidal effect (%) (Sonchus oleracea [1]; Sonchus oleracea/57 d, 8160 g of active compound/ha): 0%
herbicidal effect (%) (Sonchus oleracea [1]; Sonchus oleracea/57 d, 10880 g of active compound/ha): 0%
herbicidal effect (%) (Sonchus oleracea [1]; Sonchus oleracea/78 d, 5440 g of active compound/ha): 0%
herbicidal effect (%) (Sonchus oleracea [1]; Sonchus oleracea/78 d, 8160 g of active compound/ha): 0%
herbicidal effect (%) (Sonchus oleracea [1]; Sonchus oleracea/78 d, 10880 g of active compound/ha): 0%
herbicidal effect (%) (Poa annua; Poa annua/6 d, 5440 g of active compound/ha): 23%
herbicidal effect (%) (Poa annua; Poa annua/6 d, 8160 g of active compound/ha): 40%
herbicidal effect (%) (Poa annua; Poa annua/6 d, 10880 g of active compound/ha): 45%
herbicidal effect (%) (Poa annua; Poa annua/16 d, 5440 g of active compound/ha): 55%
herbicidal effect (%) (Poa annua; Poa annua/16 d, 8160 g of active compound/ha): 58%
herbicidal effect (%) (Poa annua; Poa annua/16 d, 10880 g of active compound/ha): 60%
herbicidal effect (%) (Poa annua; Poa annua/30 d, 5440 g of active compound/ha): 53%
herbicidal effect (%) (Poa annua; Poa annua/30 d, 8160 g of active compound/ha): 55%
herbicidal effect (%) (Poa annua; Poa annua/30 d, 10880 g of active compound/ha): 65%
herbicidal effect (%) (Poa annua; Poa annua/57 d, 5440 g of active compound/ha): 0%
herbicidal effect (%) (Poa annua; Poa annua/57 d, 8160 g of active compound/ha): 0%
herbicidal effect (%) (Poa annua; Poa annua/57 d, 10880 g of active compound/ha): 0%
herbicidal effect (%) (Poa annua; Poa annua/78 d, 5440 g of active compound/ha): 0%
herbicidal effect (%) (Poa annua; Poa annua/78 d, 8160 g of active compound/ha): 0%
herbicidal effect (%) (Poa annua; Poa annua/78 d, 10880 g of active compound/ha): 1%
herbicidal effect (Erigeron sumatrensis; 5 d, pelargonic acid 5440 g/ha): 55%
herbicidal effect (Erigeron sumatrensis; 5 d, pelargonic acid 8160 g/ha): 83%
herbicidal effect (Erigeron sumatrensis; 15 d, pelargonic acid 5440 g/ha): 35%
herbicidal effect (Erigeron sumatrensis; 15 d, pelargonic acid 6800 g/ha): 50%
herbicidal effect (Erigeron sumatrensis; 15 d, pelargonic acid 8160 g/ha): 61%
herbicidal effect (Convolvulus arvensis; 7 d, pelargonic acid 5440 g/ha): 13%
herbicidal effect (Convolvulus arvensis; 7 d, pelargonic acid 6800 g/ha): 0%
herbicidal effect (Convolvulus arvensis; 7 d, pelargonic acid 8160 g/ha): 19%
herbicidal effect (Convolvulus arvensis; [3]): 13%
herbicidal effect (Convolvulus arvensis; [4]): 0%
herbicidal effect (Convolvulus arvensis; [5]): 23%
herbicidal effect (Convolvulus arvensis; [6]): 43%
herbicidal effect (Convolvulus arvensis; [7]): 0%
herbicidal effect (Convolvulus arvensis; 28 d, pelargonic acid 8160 g/ha): 0%
herbicidal effect (Convolvulus arvensis; 28 d, pelargonic acid 10880 g/ha): 38%
herbicidal effect (Convolvulus arvensis; 65 d, pelargonic acid 5440 g/ha): 0%
herbicidal effect (Convolvulus arvensis; 65 d, pelargonic acid 6800 g/ha): 0%
herbicidal effect (Convolvulus arvensis; 65 d, pelargonic acid 8160 g/ha): 0%
herbicidal effect (Convolvulus arvensis; 65 d, pelargonic acid 10880 g/ha): 0%
herbicidal effect (Sonchus oleracea [2]; [3]): 25%
herbicidal effect (Sonchus oleracea [2]; [4]): 45%
herbicidal effect (Sonchus oleracea [2]; [5]): 25%
herbicidal effect (Sonchus oleracea [2]; [6]): 28%
herbicidal effect (Sonchus oleracea [2]; 27 d, pelargonic acid 5440 g/ha): 0%
herbicidal effect (Sonchus oleracea [2]; 27 d, pelargonic acid 6800 g/ha): 13%
herbicidal effect (Sonchus oleracea [2]; 27 d, pelargonic acid 8160 g/ha): 0%
herbicidal effect (Sonchus oleracea [2]; 27 d, pelargonic acid 10880 g/ha): 0%
herbicidal effect (Sonchus oleracea [2]; 56 d, pelargonic acid 5440 g/ha): 0%
herbicidal effect (Sonchus oleracea [2]; 56 d, pelargonic acid 6800 g/ha): 0%
herbicidal effect (Sonchus oleracea [2]; 56 d, pelargonic acid 8160 g/ha): 0%
herbicidal effect (Sonchus oleracea [2]; 56 d, pelargonic acid 10880 g/ha): 0%
herbicidal effect (Oxalis latifolia; 7 d, pelargonic acid 6800 g/ha): 54%
herbicidal effect (Oxalis latifolia; 7 d, pelargonic acid 8160 g/ha): 58%
herbicidal effect (Oxalis latifolia; 7 d, pelargonic acid 10880 g/ha): 73%
herbicidal effect (Oxalis latifolia; [3]): 76%
herbicidal effect (Oxalis latifolia; [4]): 85%
herbicidal effect (Oxalis latifolia; [5]): 89%
herbicidal effect (Oxalis latifolia; [6]): 96%
herbicidal effect (Oxalis latifolia; [7]): 68%
